Measured values published in ChEMBL document CHEMBL3217615, “Novel 3,5-bis(arylidiene)-4-piperidone based monocarbonyl analogs of curcumin: anticancer activity evaluation and mode of action study” (2014).

Legend:
Type in all cases: functional
SN12C = experiment: Growth inhibition of human SN12C cells assessed as cell growth at 10^-5 M after 48 hrs by sulforhodamine B assay; settings: read-out: Activity
[1] = Growth inhibition of human BT549 cells assessed as cell growth at 10^-7 M after 48 hrs by sulforhodamine B assay; settings: BT-549, 48 h, read-out: Activity
NCI-H522 = experiment: Growth inhibition of human NCI-H522 cells assessed as cell growth at 10^-5 M after 48 hrs by sulforhodamine B assay; settings: NCI-H522, 48 h, read-out: Activity
SR = experiment: Growth inhibition of human SR cells after 48 hrs by sulforhodamine B assay
COLO 205 [2] = experiment: Induction of apoptosis in human COLO205 cells assessed as caspase 8 activation at 10 uM by FLICA
[3] = Growth inhibition of human MOLT4 cells assessed as cell growth at 10^-5 M after 48 hrs by sulforhodamine B assay; settings: MOLT-4, 48 h, read-out: Activity
SK-MEL-2 [4] = experiment: Growth inhibition of human SK-MEL-2 cells assessed as cell growth at 10^-5 M after 48 hrs by sulforhodamine B assay; settings: SK-MEL-2, 48 h, read-out: Activity
[5] = Growth inhibition of human HOP92 cells assessed as cell growth at 10^-5 M after 48 hrs by sulforhodamine B assay; settings: HOP-92, 48 h, read-out: Activity
HT-29 = experiment: Growth inhibition of human HT-29 cells after 48 hrs by sulforhodamine B assay; settings: HT-29, 48 h
SNB-19 = experiment: Growth inhibition of human SNB19 cells assessed as cell growth at 10^-5 M after 48 hrs by sulforhodamine B assay; settings: SNB-19, 48 h, read-out: Activity
A549 = experiment: Growth inhibition of human A549/ATCC cells assessed as cell growth at 10^-5 M after 48 hrs by sulforhodamine B assay; settings: A549, 48 h, read-out: Activity
[6] = Growth inhibition of human LOXIMVI cells assessed as cell growth at 10^-5 M after 48 hrs by sulforhodamine B assay; settings: LOX IMVI, read-out: Activity
[7] = Growth inhibition of human SF539 cells assessed as cell growth at 10^-5 M after 48 hrs by sulforhodamine B assay; settings: SF-539, 48 h, read-out: Activity
NCI-H226 = experiment: Growth inhibition of human NCI-H226 cells assessed as cell growth at 10^-4 M after 48 hrs by sulforhodamine B assay; settings: NCI-H226, 48 h, read-out: Activity
[8] = Growth inhibition of human OVCAR8 cells assessed as cell growth at 10^-8 M after 48 hrs by sulforhodamine B assay; settings: OVCAR-8, 48 h
SF-268 = experiment: Growth inhibition of human SF268 cells assessed as cell growth at 10^-6 M after 48 hrs by sulforhodamine B assay; settings: SF-268, 48 h, read-out: Activity
MDA-MB-231 [9] = experiment: Growth inhibition of human MDA-MB-231 cells assessed as cell growth at 10^-7 M after 48 hrs by sulforhodamine B assay; settings: MDA-MB-231, 48 h, read-out: Activity
[10] = Growth inhibition of human UACC62 cells assessed as cell growth at 10^-4 M after 48 hrs by sulforhodamine B assay; settings: UACC-62, 48 h, read-out: Activity
Malme-3M = experiment: Growth inhibition of human MALME-3M cells assessed as cell growth at 10^-5 M after 48 hrs by sulforhodamine B assay; settings: read-out: Activity
[11] = Growth inhibition of human UO31 cells assessed as cell growth at 10^-5 M after 48 hrs by sulforhodamine B assay; settings: UO-31, 48 h, read-out: Activity
K562 [12] = experiment: Growth inhibition of human K562 cells assessed as cell growth at 10^-5 M after 48 hrs by sulforhodamine B assay; settings: K562, 48 h, read-out: Activity
TK-10 = experiment: Growth inhibition of human TK10 cells assessed as cell growth at 10^-5 M after 48 hrs by sulforhodamine B assay; settings: TK-10, 48 h, read-out: Activity
[13] = Growth inhibition of human HCT15 cells assessed as cell growth at 10^-7 M after 48 hrs by sulforhodamine B assay; settings: HCT-15, 48 h, read-out: Activity
NCI-H23 = experiment: Growth inhibition of human NCI-H23 cells assessed as cell growth at 10^-5 M after 48 hrs by sulforhodamine B assay; settings: NCI-H23, 48 h, read-out: Activity
K562 [14] = experiment: Growth inhibition of human K562 cells assessed as cell growth at 10^-8 M after 48 hrs by sulforhodamine B assay; settings: K562, 48 h
ACHN = experiment: Growth inhibition of human ACHN cells assessed as cell growth at 10^-4 M after 48 hrs by sulforhodamine B assay; settings: read-out: Activity
SNB-75 = experiment: Growth inhibition of human SNB75 cells assessed as cell growth at 10^-5 M after 48 hrs by sulforhodamine B assay; settings: SNB-75, 48 h, read-out: Activity
HCT-116 = experiment: Growth inhibition of human HCT116 cells assessed as cell growth at 10^-5 M after 48 hrs by sulforhodamine B assay; settings: HCT-116, 48 h, read-out: Activity
NCI-H460 = experiment: Growth inhibition of human NCI-H460 cells assessed as cell growth at 10^-5 M after 48 hrs by sulforhodamine B assay; settings: NCI-H460, 48 h, read-out: Activity
COLO 205 [15] = experiment: Induction of apoptosis in human COLO205 cells assessed as caspase 3/7 activation at 10 uM by FLICA
PC-3 = experiment: Growth inhibition of human PC3 cells assessed as cell growth at 10^-5 M after 48 hrs by sulforhodamine B assay; settings: PC-3, 48 h, read-out: Activity
SW-620 = experiment: Growth inhibition of human SW620 cells after 48 hrs by sulforhodamine B assay; settings: SW-620, 48 h
MDA-MB-231 [16] = experiment: Growth inhibition of human MDA-MB-231 cells assessed as cell growth at 10^-5 M after 48 hrs by sulforhodamine B assay; settings: MDA-MB-231, 48 h, read-out: Activity
MCF7 = experiment: Growth inhibition of human MCF7 cells assessed as cell growth at 10^-5 M after 48 hrs by sulforhodamine B assay; settings: MCF7, 48 h, read-out: Activity
SK-MEL-2 [17] = experiment: Growth inhibition of human SK-MEL-2 cells assessed as cell growth at 10^-8 M after 48 hrs by sulforhodamine B assay; settings: SK-MEL-2, 48 h
[18] = read-out: LC50 (the source's name)

Compound: Cc1ccc(S(=O)(=O)N2C/C(=C\c3cc(F)cc(F)c3)C(=O)/C(=C/c3cc(F)cc(F)c3)C2)cc1
- growth at 10 µM (SN12C): -86%
- growth at 0.1 µM [1]: 111%
- growth at 10 µM (NCI-H522): -84%
- GI50 (SR): 34.8 nM
- TGI (SR): 252 nM
- CC50 (SR; [18]): > 100000 nM
- Activity (COLO 205 [2]): 61%
- growth at 10 µM [3]: -17%
- growth at 10 µM (SK-MEL-2 [4]): -44%
- growth at 10 µM [5]: -51%
- GI50 (HT-29): 229 nM
- TGI (HT-29): 638 nM
- CC50 (HT-29; [18]): 3190 nM
- growth at 10 µM (SNB-19): -97%
- growth at 10 µM (A549): 7%
- growth at 10 µM [6]: -98%
- growth at 10 µM [7]: -72%
- growth at 100 µM (NCI-H226): -32%
- GI50 [8]: 302 nM
- LC50 [8]: 16200 nM
- growth at 0.01 µM ([8]; read-out: Activity): 95%
- TGI ([8]; read-out: pTGI (converted)): 1780 nM
- growth at 1 µM (SF-268): 21%
- growth at 0.1 µM (MDA-MB-231 [9]): 97%
- growth at 100 µM [10]: -98%
- growth at 10 µM (Malme-3M): -75%
- growth at 10 µM [11]: -92%
- growth at 10 µM (K562 [12]): -19%
- growth at 10 µM (TK-10): -58%
- growth at 0.1 µM [13]: 80%
- growth at 10 µM (NCI-H23): -33%
- GI50 (K562 [14]): 77.6 nM
- growth at 0.01 µM (K562 [14]; read-out: Activity): 94%
- CC50 (K562 [14]; read-out: pLC50 (the source's name) (converted)): > 100000 nM
- TGI (K562 [14]; read-out: pTGI (converted)): 1380 nM
- growth at 100 µM (ACHN): -94%
- growth at 10 µM (SNB-75): -41.6%
- growth at 10 µM (HCT-116): -94%
- growth at 10 µM (NCI-H460): -53%
- Activity (COLO 205 [15]): 41.5%
- growth at 10 µM (PC-3): -60.3%
- GI50 (SW-620): 72.1 nM
- TGI (SW-620): 305 nM
- CC50 (SW-620; [18]): 1450 nM
- growth at 10 µM (MDA-MB-231 [16]): -53%
- growth at 10 µM (MCF7): -75.4%
- GI50 (SK-MEL-2 [17]): 2000 nM
- LC50 (SK-MEL-2 [17]): 14800 nM
- growth at 0.01 µM (SK-MEL-2 [17]; read-out: Activity): 105%
- TGI (SK-MEL-2 [17]; read-out: pTGI (converted)): 4680 nM

Compound: Cc1ccc(S(=O)(=O)N2C/C(=C\c3c(Cl)cccc3Cl)C(=O)/C(=C/c3c(Cl)cccc3Cl)C2)cc1
- growth at 10 µM (SN12C): 85.6%
- growth at 10 µM (NCI-H522): 88.6%
- growth at 10 µM [3]: 68.7%
- growth at 10 µM [5]: 73.5%
- growth at 10 µM (SNB-19): 95.7%
- growth at 10 µM (A549): 77.1%
- growth at 10 µM [6]: 79.4%
- growth at 10 µM [7]: 106%
- growth at 10 µM (Malme-3M): 89%
- growth at 10 µM [11]: 72.5%
- growth at 10 µM (K562 [12]): 81.6%
- growth at 10 µM (TK-10): 115%
- growth at 10 µM (NCI-H23): 97.7%
- growth at 10 µM (SNB-75): 65.2%
- growth at 10 µM (HCT-116): 74.2%
- growth at 10 µM (NCI-H460): 83.3%
- growth at 10 µM (PC-3): 67.3%
- growth at 10 µM (MDA-MB-231 [16]): 64.3%
- growth at 10 µM (MCF7): 64.5%
